Test results: patent US5684017A, “Benzenesulfonylimine derivatives as inhibitors of IL-1 action” (Merrell Pharmaceuticals Inc., priority 1996, dated 1997)

Tests used:
[1] = Interleukin-1-Beta-Induced Tumor Necrosis Factor Alpha Release by Human Macrophages; type: cell-based; details: Macrophage; recombinant human IL-1β 20 ng/mL; compound 1 h before stimulation; supernatants after 24 h, ELISA; read-out: IC50 (IL-1β-induced TNFα release)
Protocol: (§1) The compounds of Formula I inhibit IL-1 action. One mechanism for inhibiting IL-1 action is to inhibit IL-1 production. Inhibition of IL-1 production was tested using lipopolysaccharide (LPS) stimulated macrophages. Inhibition of IL-1 induced production of cytokines was tested by measuring the inhibition of TNFα (tumor necrosis factor alpha) synthesis from IL-1 stimulated macrophages. The protocols for these test procedures are described below.
Interleukin-1-Beta-Induced Tumor Necrosis Factor Alpha Release by Human Macrophages
To determine the inhibitory concentrations for the test compounds against interleukin-1 beta (IL-1β)-induced tumor necrosis factor alpha (TNFα) release by human peripheral blood monocyte-derived macrophages. It should be understood that this is a test of the ability of the test compounds to modulate, i.e. inhibit, the activity of IL-1β by measuring the inhibition of IL-1β induced release of TNFα.
Source Human Peripheral Blood Monocyte-Derived Macrophages:
(§2) Venous blood is collected form healthy volunteers in 10 mM sodium citrate (2 mL sterile sodium citrate for 40 mL blood). Mononuclear cells are isolated with the Leucoprep tubes (Becton Dickinson, product number 2752 or 2751) spun at 1500 g for fifteen minutes. Aliquots of 3×10^6 mononuclear cells are added to 24-well tissue culture plates (Corning) in RPMI-1640. After 1 hour incubation at 37° C., non-adherent cells are gently rinsed off. The adherent cells (macrophages) are given back fresh medium RPMI-1640, 1 mL/well.
Macrophage monolayer cultures are pretreated with compounds one hour prior to IL-1β (20 ng/mL, recombinant human IL-1β) stimulation. Compounds dissolved in 95% ethanol or DMSO would require additional monolayer cultures treated with 10 or 2.5 μl 95% ethanol or DMSO, respectively. Culture supernatants are collected 24 hours later and are tested for TNF-α using a commercial ELISA kit (Cistron).
The TNF-α concentration in the culture supernatant is calculated by a standard curve generated from a series of known concentrations. Potency of compound is reported in IC50 (UM).

[2] = system: interleukin-1 beta (IL-1β) release (production) by human peripheral blood monocyte-derived macrophages; assay: Endotoxin-Induced Interleukin-1 Beta Release by Human Macrophages; type: cell-based; details: Macrophage, endotoxin 20 ng/mL (Salmonella typhimurium Re-mutant), compound 1 h before stimulation, supernatants after 24 h, ELISA
Protocol: as §1
Endotoxin-Induced Interleukin-1 Beta Release by Human Macrophages
The objective of this test is to determine the inhibitory concentrations for the test compounds against endotoxin-induced interleukin-1 beta (IL-1β) release (production) by human peripheral blood monocyte-derived macrophages.
The source of the human peripheral blood monocyte-derived macrophages is as follows:
as §2, with “collected from” for “collected form”, “(Becton Dickenson,” for “(Becton Dickinson,”, “for 15” for “for fifteen”, “After one” for “After 1”, “off. […]” for “off. The adherent cells (macrophages) are given back fresh medium RPMI-1640, 1 mL/well.”
The IL-1β concentration in the culture supernatant is calculated by a standard curve generated from a series of known concentrations. […]

[3] = system: IL-1 production; details: cited from earlier work
[4] = mammal having an arthritic condition; U.S. Pat. No. 5,122,534; cited from earlier work

SMILES	IC50 [1]	IC50 [2]	block IL-1 production [3]	serum LDL cholesterol [4]	serum triglycerides [4]	total level of serum cholesterol [4]
O=C(c1ccccc1)c1cc(=NS(=O)(=O)c2ccccc2)c2c(Cl)cc(Cl)cc2[nH]1 [5,7-Dichloro-2-benzoyl-4-[benzenesulfonylimino]-1,4-dihydroquinoline]	3 µM	2 µM	–	–	–	–
O=C(c1ccccc1)c1cc(=NS(=O)(=O)c2ccccc2)c2ccccc2o1 [2-Benzoyl-4-benzenesulfonylimino-4H-chromene]	1.3 µM	–	–	–	–	–
NC(=O)N1C(=O)/C(=C(\O)c2cccs2)c2cc(Cl)ccc21 [Tenidap]	–	–	known to block IL-1 production	reduces	reduces	reduces
CC(=O)c1cc(=NS(=O)(=O)c2ccccc2)c2c(Cl)cc(Cl)cc2[nH]1 [5,7-Dichloro-2-acetyl-4-[benzenesulfonylimino]-1,4-dihydroquinoline]	8 µM	4 µM	–	–	–	–
